From the NIST ThermoML archive (doi:10.1021/acs.jced.6b00360)
± gives the expanded uncertainty stated by the source.

Conditions: Liquid, Vibrating tube method

mass density (313.15 K, 101.33 kPa) | mass density (323.15 K, 101.33 kPa) | mass density (333.15 K, 101.33 kPa) | mass density (343.15 K, 101.33 kPa) | mass density (352.15 K, 101.33 kPa) | mass density (280.15 K, 100 kPa) | mass density (280.15 K, 40000 kPa) | mass density (293.15 K, 100 kPa) | mass density (293.15 K, 40000 kPa) | mass density (303.15 K, 100 kPa) | mass density (303.15 K, 40000 kPa) | mass density (313.15 K, 100 kPa) | mass density (313.15 K, 40000 kPa) | mass density (323.15 K, 100 kPa) | mass density (323.15 K, 40000 kPa) | mass density (333.15 K, 100 kPa) | mass density (333.15 K, 40000 kPa) | mass density (343.15 K, 100 kPa) | mass density (352.15 K, 100 kPa) | Compound
959.4 ± 3.9 kg/m3 | 951 ± 3.9 kg/m3 | 943.1 ± 3.9 kg/m3 | 934.4 ± 3.8 kg/m3 | 927 ± 3.8 kg/m3 |  |  |  |  |  |  |  |  |  |  |  |  |  |  | COC(=O)CCCCCCCCCCC(=O)OC [dimethyl dodecanoate]
 |  |  |  |  | 897.46 ± 5.7 kg/m3 | 914.37 ± 5.8 kg/m3 | 886.83 ± 5.6 kg/m3 | 906.75 ± 5.8 kg/m3 | 878.63 ± 5.5 kg/m3 | 895.63 ± 5.7 kg/m3 | 870.71 ± 5.5 kg/m3 | 888.48 ± 5.7 kg/m3 | 862.33 ± 5.4 kg/m3 | 881.75 ± 5.6 kg/m3 | 854.49 ± 5.3 kg/m3 | 874.61 ± 5.6 kg/m3 | 845.8 ± 5.3 kg/m3 | 838.42 ± 5.2 kg/m3 | C=CCCCCCCCCC(=O)OC [methyl 10-undecenoate]
